Laboratory results as given in article PMC8509676, “Residual Helicity at the Active Site of the Histidine Phosphocarrier, HPr, Modulates Binding Affinity to Its Natural Partners” (International Journal of Molecular Sciences, 2021).

Assays:
Rsd^ec = target: T1, Rsd^ec (Escherichia coli, UniProt P0AFX4); experiment: Fluorescence titration, peptide/Rsd^ec binding
T1 construct: His-tag; made in house; host or cells: E. coli C41
Method: (§1) Spectra were collected at 25 °C on a Cary spectrofluorometer (Agilent, Madrid, Spain), with a Peltier temperature controller. The samples were prepared the day before and left overnight at 5 °C. Before measurements, the samples were incubated for 1 h at 25 °C. A quartz cell with a 1 cm path length (Hellma, Kruibeke, Belgium) was used. In all the experiments, the slit widths were equal to 5 nm for both the excitation and emission lights. Protein samples were excited at either 280 or 295 nm. The experiments were performed between 300 and 400 nm. The signal was acquired for 1 s, and the increment of wavelength was set to 1 nm. Appropriate blank corrections were made in all spectra. For the binding experiments, 3 µM of either protein (Rsd^ec or EIN^sc) and 15 µM of the corresponding peptide were mixed. The experiments in aqueous solution were acquired in Tris buffer (50 mM, pH 7.0).
(§2) For the titration between either of the two proteins (Rsd^ec or EIN^sc) and the corresponding peptide, increasing amounts of the latter, in a concentration range of 0 to 30 µM, were added to a solution with a fixed concentration of each protein (3 µM). The experimental set-up was identical to that described above, including preparation of the samples the day before and their storage overnight at 5 °C. Before measurements, the samples were incubated for 1 h at 25 °C. The fluorescence of a blank solution containing only the corresponding peptide was subtracted for each data point. […] The Kd was determined by following the fluorescence at selected wavelengths and fitting experimental data to Equation (1). […] At all used concentrations, the fluorescence was corrected by the inner-filter effects.

[1] = aqueous solution; cited from earlier work
Description: Streptomyces is an actinomycete, Gram-positive organism with high content of G + C base pairs in its genome. We have carried out an extensive description of the structures and conformational stabilities of HPr^sc (O50515) and EI (EI^sc) (Q9KZP1) to understand their binding in the PTS cascade. We have also characterized the interaction of EI^sc with wild-type HPr^sc and that of the phosphorylated species, as well as that of the N-terminal domain of EI^sc (EIN^sc) with intact HPr^sc. We have also shown that the peptide comprising residues Ala9-Gly3 ...

[2] = target: EIN^sc (N-terminal domain of EI^sc) (Streptomyces coelicolor, UniProt Q9KZP1); experiment: biochemical; format: binding
Method: The experimental set-up and data processing of ITC experiments has been described previously. Rsd^ec or EIN^sc (at 10–20 µM) were injected into the cell, and the peptides in the syringe (100–200 µM) in 50 mM of Tris buffer, pH 7.0. The temperature for all the experiments was 25 °C. Typically, each calorimetric titration consisted of performing 19 injections with 2 μL volume, with a time spacing of 150 s, while stirring at 750 rpm in an Auto-iTC200 high-sensitivity microcalorimeter (MicroCal, Malvern-Panalytical, Malvern, UK). The results were analysed by applying a model that considered a single binding site (assuming a 1:1 stoichiometry) for the peptide/EIN^sc or peptide/Rsd^ec interaction using a nonlinear least-squares regression analysis in Origin 7.0 (OriginLab, Northampton, MA, USA) with user-defined fitting routines.

EIN^sc = EIN^sc (Streptomyces coelicolor, UniProt Q9KZP1); experiment: biochemical; format: binding
Method: as §1, §2

EIN^sc (N-terminal domain of EI^sc), sequence (Q9KZP1 1-230): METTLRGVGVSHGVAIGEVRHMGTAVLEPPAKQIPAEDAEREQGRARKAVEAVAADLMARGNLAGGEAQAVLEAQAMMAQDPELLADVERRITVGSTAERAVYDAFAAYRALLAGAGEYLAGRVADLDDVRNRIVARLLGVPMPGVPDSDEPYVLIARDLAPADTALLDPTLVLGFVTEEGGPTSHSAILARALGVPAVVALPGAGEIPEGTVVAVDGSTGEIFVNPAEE
EIN^sc, sequence (Q9KZP1 1-230): as above
T1 sequence (P0AFX4 whole entry): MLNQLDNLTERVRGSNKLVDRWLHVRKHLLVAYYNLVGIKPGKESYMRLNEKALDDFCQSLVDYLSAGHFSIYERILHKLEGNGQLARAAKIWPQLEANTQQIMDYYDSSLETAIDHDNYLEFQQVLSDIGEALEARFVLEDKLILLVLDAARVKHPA

## Ac-GWAEGLHARPASIFVRAATATG-NH2 [Wild-type]
Rsd^ec
  Kd: 5 µM
[1]
  helical population: about 7%
[2]
  Kd: 2.3 ± 0.4 µM
[2]; ITC, 25 °C, 50 mM Tris pH 7.0
  ΔH, EIN^sc: -0.8 ± 0.4 kcal/mol
EIN^sc
  Kd: 10 µM
